The subject of experiment [1] is LNCaP prostate cancer cells. Format: cell-based, human. The conditions noted are these: 48 h. On the procedure: Cells were analyzed on a FACS Calibur (Becton Dickinson, San Jose, Calif.) flow cytometer, equipped with a 15 mW air-cooled argon laser, using CellQuest (Becton Dickinson) acquisition software. Propidium iodide (PI) fluorescence was collected through a 585/42-nm bandpass filter, and list mode data were acquired on a minimum of 12,000 single cells defined by a dot plot of PI-width versus PI-area. Data analysis was performed in ModFit LT (Verity Software House, Topsham, Me.) using PI-width versus PI-area to exclude cell aggregates.
The effects of TCDD on cell cycle progression was also determined in LNCaP cells treated with 1.0, 10 and 100 nM TCDD for 48 h followed by FACS analysis (Table 1).

Experiment [2] deals with ethoxyresorufin O-deethylase (EROD) activity in PC3 cells. Description: Induction of EROD activity in PC3 cells. The conditions noted are these: 24-96 hr. Format: cell-based. On the procedure:
An androgen responsive prostate cancer cell line 22Rv1 and an androgen nonresponsive prostate cancer cell line PC3 were treated with TCDD and ethoxyresorufin O-deethylase (EROD) activity was measured.

Like-named read-outs stand apart in the source and are kept apart here.

`Clc1cc2c(cc1Cl)Oc1cc(Cl)c(Cl)cc1O2` [TCDD, 2,3,7,8-tetrachloro-p-dioxin]: the “cells in S phase” value in experiment [1] (1.0, 10 and 100 nM) is reported as “decrease”. In addition, the “percentage of cells in G0/G1” value in experiment [1] (1.0, 10 and 100 nM) was “small but significant increase”. The “Percent Distribution G0/G1” value in experiment [1] (10^−7 M) was 77.500 ± 0.451%; in experiment [1] (10^−8 M), 75.367 ± 0.636%; in experiment [1] (10^−9 M), 74.300 ± 0.751%. The “Percent Distribution G2/M” value in experiment [1] (10^−7 M) is given as 8.943 ± 0.471%; in experiment [1] (10^−8 M), 10.300 ± 0.153%; in experiment [1] (10^−9 M), 10.633 ± 0.376%. In addition, the “Percent Distribution S” value in experiment [1] (10^−7 M) is recorded as 13.567 ± 0.176%; in experiment [1] (10^−8 M) it was 14.3 ± 0.666%; in experiment [1] (10^−9 M), 14.7 ± 0.520%. In addition, the EROD activity induction result was “did not induce activity” in experiment [2] (1 nM) and “induced a response” in experiment [2] (10 nM, maximal after 96 hr).

Source of the values: patent publication US20050143450A1, “Alkyl PCDF as a treatment for prostate cancer” (priority 2002, published 2005).
